According to ChEMBL document CHEMBL5223127, “Fragment-based discovery of novel phenyltriazolyl derivatives as allosteric type-I1/2 ALK inhibitors with promising antitumor effects” (Bioorg Med Chem Lett, 2022):

How the values were obtained:
[1] = test system: A549; test: cells; settings: Homo sapiens
Description: Antiproliferative activity against human A549 cells by MTT assay

[2] = test system: KARPAS-299; test: Antiproliferative activity against human KARPAS-299 cells by MTT assay
[3] = test system: NCI-H2228; test: Antiproliferative activity against human NCI-H2228 cells by MTT assay
[4] = molecular target: ALK tyrosine kinase receptor (Homo sapiens, UniProt Q9UM73); test: Inhibition of wild type ALK (unknown origin)
Sequence of ALK tyrosine kinase receptor (Homo sapiens, UniProt Q9UM73) (Q9UM73 whole entry): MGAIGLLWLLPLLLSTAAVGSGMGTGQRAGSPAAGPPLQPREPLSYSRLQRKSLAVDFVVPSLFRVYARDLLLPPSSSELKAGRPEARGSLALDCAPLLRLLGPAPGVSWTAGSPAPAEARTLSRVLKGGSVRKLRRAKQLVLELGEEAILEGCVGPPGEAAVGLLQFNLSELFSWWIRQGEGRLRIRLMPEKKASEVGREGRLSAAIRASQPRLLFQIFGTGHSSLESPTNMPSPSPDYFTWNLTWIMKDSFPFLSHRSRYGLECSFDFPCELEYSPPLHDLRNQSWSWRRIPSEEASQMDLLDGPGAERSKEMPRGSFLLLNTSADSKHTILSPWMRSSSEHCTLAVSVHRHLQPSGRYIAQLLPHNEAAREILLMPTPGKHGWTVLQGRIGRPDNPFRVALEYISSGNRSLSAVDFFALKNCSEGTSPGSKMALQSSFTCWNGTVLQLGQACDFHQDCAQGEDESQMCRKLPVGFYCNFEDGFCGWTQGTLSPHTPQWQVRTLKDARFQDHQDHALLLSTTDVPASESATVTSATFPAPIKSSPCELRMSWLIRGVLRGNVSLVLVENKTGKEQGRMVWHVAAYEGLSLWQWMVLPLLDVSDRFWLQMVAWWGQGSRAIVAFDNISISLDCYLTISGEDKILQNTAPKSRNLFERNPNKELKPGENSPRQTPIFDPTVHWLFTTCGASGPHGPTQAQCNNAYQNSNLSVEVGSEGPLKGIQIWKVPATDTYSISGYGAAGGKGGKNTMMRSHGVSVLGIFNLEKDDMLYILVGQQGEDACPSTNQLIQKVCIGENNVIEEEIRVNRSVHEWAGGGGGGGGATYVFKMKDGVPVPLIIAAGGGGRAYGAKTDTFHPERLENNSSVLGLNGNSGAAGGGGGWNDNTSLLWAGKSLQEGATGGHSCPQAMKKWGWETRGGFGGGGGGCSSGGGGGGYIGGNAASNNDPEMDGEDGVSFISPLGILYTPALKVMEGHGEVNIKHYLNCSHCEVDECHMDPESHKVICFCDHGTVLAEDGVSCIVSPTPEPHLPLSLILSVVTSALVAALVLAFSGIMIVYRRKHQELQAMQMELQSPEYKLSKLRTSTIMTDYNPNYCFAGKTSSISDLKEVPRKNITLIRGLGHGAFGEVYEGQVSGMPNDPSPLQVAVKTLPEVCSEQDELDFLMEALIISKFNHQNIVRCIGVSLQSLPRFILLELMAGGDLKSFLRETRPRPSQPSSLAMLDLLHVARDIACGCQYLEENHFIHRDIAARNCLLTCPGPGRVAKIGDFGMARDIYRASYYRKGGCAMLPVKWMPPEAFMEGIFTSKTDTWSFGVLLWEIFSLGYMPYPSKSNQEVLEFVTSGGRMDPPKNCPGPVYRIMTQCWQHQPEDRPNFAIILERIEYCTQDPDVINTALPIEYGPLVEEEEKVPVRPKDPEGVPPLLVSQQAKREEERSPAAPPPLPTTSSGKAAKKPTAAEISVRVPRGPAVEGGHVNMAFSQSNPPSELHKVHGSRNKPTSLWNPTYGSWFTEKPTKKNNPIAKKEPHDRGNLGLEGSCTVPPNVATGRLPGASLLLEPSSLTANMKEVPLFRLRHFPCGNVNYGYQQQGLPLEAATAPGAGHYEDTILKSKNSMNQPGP

[5] = molecular target: ALK tyrosine kinase receptor (Homo sapiens, UniProt Q9UM73, L1196M); test: Inhibition of ALK L1196M mutant (unknown origin)
Sequence of ALK tyrosine kinase receptor (Homo sapiens, UniProt Q9UM73, L1196M) (Q9UM73 19-1620 L1196M limits assumed): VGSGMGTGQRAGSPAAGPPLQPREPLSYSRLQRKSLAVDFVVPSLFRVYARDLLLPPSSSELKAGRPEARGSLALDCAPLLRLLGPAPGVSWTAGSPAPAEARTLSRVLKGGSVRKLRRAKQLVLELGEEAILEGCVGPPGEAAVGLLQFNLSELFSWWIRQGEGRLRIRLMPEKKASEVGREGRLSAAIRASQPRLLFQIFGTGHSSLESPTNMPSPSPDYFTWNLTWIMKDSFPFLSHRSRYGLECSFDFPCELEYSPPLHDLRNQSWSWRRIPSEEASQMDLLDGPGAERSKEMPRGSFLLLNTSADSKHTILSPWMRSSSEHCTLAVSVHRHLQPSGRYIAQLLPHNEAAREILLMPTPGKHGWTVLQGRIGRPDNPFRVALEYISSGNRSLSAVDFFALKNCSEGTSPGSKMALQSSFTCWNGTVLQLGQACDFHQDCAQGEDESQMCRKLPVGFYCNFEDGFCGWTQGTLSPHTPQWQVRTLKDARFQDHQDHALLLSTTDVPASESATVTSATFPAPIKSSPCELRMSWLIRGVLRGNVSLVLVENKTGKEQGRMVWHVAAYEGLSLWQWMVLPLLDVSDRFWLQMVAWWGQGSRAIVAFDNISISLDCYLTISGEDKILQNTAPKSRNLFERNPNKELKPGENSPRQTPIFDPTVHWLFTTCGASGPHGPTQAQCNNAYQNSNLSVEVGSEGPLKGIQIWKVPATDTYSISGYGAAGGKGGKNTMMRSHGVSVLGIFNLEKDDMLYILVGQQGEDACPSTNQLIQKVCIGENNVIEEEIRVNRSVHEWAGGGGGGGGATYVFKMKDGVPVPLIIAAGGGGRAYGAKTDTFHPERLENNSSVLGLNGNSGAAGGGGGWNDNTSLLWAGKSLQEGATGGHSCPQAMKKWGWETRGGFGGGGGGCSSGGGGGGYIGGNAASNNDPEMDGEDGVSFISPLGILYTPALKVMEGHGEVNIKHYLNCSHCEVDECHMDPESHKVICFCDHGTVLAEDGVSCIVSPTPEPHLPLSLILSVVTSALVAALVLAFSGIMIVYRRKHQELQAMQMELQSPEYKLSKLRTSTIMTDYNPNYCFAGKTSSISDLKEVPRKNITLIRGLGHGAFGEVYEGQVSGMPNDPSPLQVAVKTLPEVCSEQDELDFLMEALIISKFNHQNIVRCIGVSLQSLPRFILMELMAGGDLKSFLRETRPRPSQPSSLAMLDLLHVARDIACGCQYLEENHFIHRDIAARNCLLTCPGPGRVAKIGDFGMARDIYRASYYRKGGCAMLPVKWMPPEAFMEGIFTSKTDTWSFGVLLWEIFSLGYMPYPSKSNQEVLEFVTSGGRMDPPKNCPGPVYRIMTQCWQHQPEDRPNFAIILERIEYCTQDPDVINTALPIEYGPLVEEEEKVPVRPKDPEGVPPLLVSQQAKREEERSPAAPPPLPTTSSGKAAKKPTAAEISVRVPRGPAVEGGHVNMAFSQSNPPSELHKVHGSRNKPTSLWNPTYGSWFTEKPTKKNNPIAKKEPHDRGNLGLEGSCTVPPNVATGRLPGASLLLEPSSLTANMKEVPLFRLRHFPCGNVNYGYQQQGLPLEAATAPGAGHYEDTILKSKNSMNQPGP

[6] = molecular target: Hepatocyte growth factor receptor (Homo sapiens, UniProt P08581); test: Inhibition of c-MET (unknown origin)
Sequence of Hepatocyte growth factor receptor (P08581 whole entry): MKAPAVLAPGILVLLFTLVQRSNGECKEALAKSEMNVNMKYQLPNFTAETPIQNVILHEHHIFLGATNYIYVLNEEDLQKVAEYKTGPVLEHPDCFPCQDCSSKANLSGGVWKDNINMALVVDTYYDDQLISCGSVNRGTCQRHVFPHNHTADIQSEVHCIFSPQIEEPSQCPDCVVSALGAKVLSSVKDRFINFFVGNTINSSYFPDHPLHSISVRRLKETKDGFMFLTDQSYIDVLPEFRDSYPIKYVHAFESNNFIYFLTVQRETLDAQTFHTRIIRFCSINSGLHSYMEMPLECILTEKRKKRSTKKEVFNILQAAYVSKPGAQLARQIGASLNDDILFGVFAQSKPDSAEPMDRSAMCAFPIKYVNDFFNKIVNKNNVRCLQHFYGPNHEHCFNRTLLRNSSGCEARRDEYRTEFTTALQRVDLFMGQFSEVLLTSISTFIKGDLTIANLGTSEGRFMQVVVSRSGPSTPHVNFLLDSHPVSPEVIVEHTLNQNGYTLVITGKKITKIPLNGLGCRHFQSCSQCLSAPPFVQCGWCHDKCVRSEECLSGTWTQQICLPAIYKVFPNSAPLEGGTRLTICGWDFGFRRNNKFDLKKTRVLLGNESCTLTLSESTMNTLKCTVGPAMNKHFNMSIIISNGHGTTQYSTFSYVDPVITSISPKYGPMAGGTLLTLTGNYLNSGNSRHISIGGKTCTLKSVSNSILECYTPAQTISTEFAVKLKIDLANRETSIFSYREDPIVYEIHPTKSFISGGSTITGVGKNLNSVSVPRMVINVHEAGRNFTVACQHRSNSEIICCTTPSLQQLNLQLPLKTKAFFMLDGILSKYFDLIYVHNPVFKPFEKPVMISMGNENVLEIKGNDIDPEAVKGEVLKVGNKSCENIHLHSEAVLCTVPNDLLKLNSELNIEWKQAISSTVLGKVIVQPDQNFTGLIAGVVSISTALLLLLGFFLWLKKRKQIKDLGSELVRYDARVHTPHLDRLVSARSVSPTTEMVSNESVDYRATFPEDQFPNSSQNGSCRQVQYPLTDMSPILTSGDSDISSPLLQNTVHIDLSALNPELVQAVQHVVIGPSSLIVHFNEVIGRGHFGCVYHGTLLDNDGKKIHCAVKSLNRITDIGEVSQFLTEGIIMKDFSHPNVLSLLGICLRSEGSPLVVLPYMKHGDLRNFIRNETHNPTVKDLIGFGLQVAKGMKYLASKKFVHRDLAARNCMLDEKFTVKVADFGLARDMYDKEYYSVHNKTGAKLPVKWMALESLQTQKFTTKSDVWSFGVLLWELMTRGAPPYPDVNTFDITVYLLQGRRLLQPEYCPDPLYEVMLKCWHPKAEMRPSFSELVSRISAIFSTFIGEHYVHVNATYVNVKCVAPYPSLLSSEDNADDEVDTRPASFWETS

[7] = molecular target: Epidermal growth factor receptor (Homo sapiens, UniProt P00533); test: Inhibition of EGFR (unknown origin)
[8] = test system: NCI-H2228; test: Inhibition of colony formation in human NCI-H2228 cells incubated for 24 hrs; assay type: functional, cell-based; settings: dose 0.25-1 µM
[9] = test system: NCI-H2228; test: Inhibition of colony formation in human NCI-H2228 cells at 1 uM incubated for 24 hrs; assay type: functional
[10] = test system: NCI-H2228; test: Antimigratory activity against human NCI-H2228 cells incubated for 48 hrs by wound healing assay; assay type: functional, cell-based; settings: dose 12.5-50 nM
[11] = test system: NCI-H2228; test: Induction of apoptosis in human NCI-H2228 cells assessed as nuclear fragmentation incubated for 24 hrs by Hoechst 33342 staining based fluorescence microscopy assay; assay type: functional, cell-based; settings: dose 25-100 nM
[12] = test system: NCI-H2228; test: Induction of apoptosis in human NCI-H2228 cells assessed as nuclear contraction incubated for 24 hrs by Hoechst 33342 staining based fluorescence microscopy assay; assay type: functional, cell-based; settings: dose 25-100 nM

Row | SMILES | IC50 [1] [nM] | IC50 [2] [nM] | IC50 [3] [nM] | further results
1 | CN(C)C(=O)c1cc(NCc2cn(-c3cccc(NC(=O)c4cc(F)cc(F)c4)c3)nn2)ccc1N1CCCCC1 | 4120 | 157 | 760 | –
2 | CN1CCN(c2ccc(NCc3cn(-c4cccc(NC(=O)c5cc(F)cc(F)c5)c4)nn3)cc2)CC1 | – | – | – | IC50 [4]: 55 nM
3 | O=C(Nc1cccc(-n2cc(CNc3ccc(NCCO)c(C(=O)N4CCCCC4)c3)nn2)c1)c1cc(F)cc(F)c1 | > 10000 | 602 | 2520 | –
4 | CN(C)C(=O)c1cc(NCc2cn(-c3cccc(NC(=O)c4cc(F)cc(F)c4)c3)nn2)ccc1NCCO | 7990 | 492 | 1790 | –
5 | O=C(Nc1cccc(-n2cc(CNc3ccc(NCCO)c(C(=O)N4CCOCC4)c3)nn2)c1)c1cc(F)cc(F)c1 | > 10000 | 1540 | 6940 | –
6 | CN(C)C(=O)c1cc(NCc2cn(-c3cccc(NC(=O)c4cc(F)cc(F)c4)c3)nn2)ccc1N1CCC(O)CC1 | 2050 | 62 | 198 | –
7 | CN1CCN(c2ccc(NCc3cn(-c4cccc(NC(=O)c5cc(F)cc(F)c5)c4)nn3)cc2C(=O)N(C)C)CC1 | 3750 | 55 | 169 | –
8 | CNCc1cn(-c2cccc(NC(=O)c3cc(F)cc(F)c3)c2)nn1 | – | – | – | IC50 [4]: 270 nM
9 | CN(C)c1ccc(NCc2cn(-c3cccc(NC(=O)c4cc(F)cc(F)c4)c3)nn2)cc1C(=O)N1CCCCC1 | > 10000 | 589 | 2800 | –
10 | CN(C)c1ccc(NCc2cn(-c3cccc(NC(=O)c4cc(F)cc(F)c4)c3)nn2)cc1C(=O)N1CCCC1 | > 10000 | 511 | 2690 | –
11 | CN1CCN(c2ccc(NCc3cn(-c4cccc(NC(=O)c5cc(F)cc(F)c5)c4)nn3)cc2C(=O)N2CCOCC2)CC1 | > 10000 | 452 | 1980 | –
12 | O=C(Nc1cccc(-n2cc(CNc3ccc(N4CC(O)C4)c(C(=O)N4CCOCC4)c3)nn2)c1)c1cc(F)cc(F)c1 | > 10000 | 594 | 1610 | –
13 | CN(C)C(=O)c1cc(NCc2cn(-c3cccc(NC(=O)c4cc(F)cc(F)c4)c3)nn2)ccc1N(C)C | 4930 | 356 | 1610 | –
14 | CN(C)c1ccc(NCc2cn(-c3cccc(NC(=O)c4cc(F)cc(F)c4)c3)nn2)cc1C(=O)N1CCOCC1 | > 10000 | 1760 | 7890 | –

Now from value to molecule, other results behind:

Row | IC50 [1] [nM] | IC50 [2] [nM] | IC50 [3] [nM] | SMILES | further results
15 | > 10000 | 425 | 1860 | O=C(Nc1cccc(-n2cc(CNc3ccc(N4CCC(O)CC4)c(C(=O)N4CCOCC4)c3)nn2)c1)c1cc(F)cc(F)c1 | –
16 | > 10000 | 57 | 192 | O=C(Nc1cccc(-n2cc(CNc3ccc(N4CCC(O)CC4)c(C(=O)N4CCCCC4)c3)nn2)c1)c1cc(F)cc(F)c1 | IC50 [5]: 17.6 nM; IC50 [6]: > 1000 nM; IC50 [4]: 8.6 nM; IC50 [7]: > 1000 nM
17 | > 10000 | 272 | 1020 | O=C(Nc1cccc(-n2cc(CNc3ccc(N4CCCCC4)c(C(=O)N4CCCCC4)c3)nn2)c1)c1cc(F)cc(F)c1 | –
18 | > 10000 | 240 | 1030 | CC1CCN(c2ccc(NCc3cn(-c4cccc(NC(=O)c5cc(F)cc(F)c5)c4)nn3)cc2C(=O)N2CCCCC2)CC1 | –
19 | > 10000 | 51 | 175 | O=C(Nc1cccc(-n2cc(CNc3ccc(N4CCC(O)CC4)c(C(=O)N4CCCC4)c3)nn2)c1)c1cc(F)cc(F)c1 | IC50 [5]: 6.8 nM; inhibition [8]: Dose-Dependent Effect; inhibition at 1 µM [9]: 100%; IC50 [6]: > 1000 nM; Activity [10]: Dose-Dependent Effect; IC50 [4]: 3.7 nM; Activity [11]: Dose-Dependent Effect; Activity [12]: Dose-Dependent Effect; IC50 [7]: > 1000 nM
20 | 5790 | 191 | 881 | CC1CCN(c2ccc(NCc3cn(-c4cccc(NC(=O)c5cc(F)cc(F)c5)c4)nn3)cc2C(=O)N(C)C)CC1 | –
21 | > 10000 | 2310 | > 10000 | CC1CCN(c2ccc(NCc3cn(-c4cccc(NC(=O)c5cc(F)cc(F)c5)c4)nn3)cc2C(=O)N2CCOCC2)CC1 | –
22 | > 10000 | 1910 | 7520 | O=C(Nc1cccc(-n2cc(CNc3ccc(N4CCCCC4)c(C(=O)N4CCOCC4)c3)nn2)c1)c1cc(F)cc(F)c1 | –
23 | > 10000 | 79 | 362 | CN1CCN(c2ccc(NCc3cn(-c4cccc(NC(=O)c5cc(F)cc(F)c5)c4)nn3)cc2C(=O)N2CCCC2)CC1 | –
24 | > 10000 | 91 | 387 | CN1CCN(c2ccc(NCc3cn(-c4cccc(NC(=O)c5cc(F)cc(F)c5)c4)nn3)cc2C(=O)N2CCCCC2)CC1 | –
25 | > 10000 | 55 | 193 | O=C(Nc1cccc(-n2cc(CNc3ccc(N4CC(O)C4)c(C(=O)N4CCCCC4)c3)nn2)c1)c1cc(F)cc(F)c1 | IC50 [5]: 12.9 nM; IC50 [6]: 796 nM; IC50 [4]: 5.8 nM; IC50 [7]: > 1000 nM
26 | > 10000 | 249 | 995 | CC1CCN(c2ccc(NCc3cn(-c4cccc(NC(=O)c5cc(F)cc(F)c5)c4)nn3)cc2C(=O)N2CCCC2)CC1 | –
27 | > 10000 | 232 | 991 | O=C(Nc1cccc(-n2cc(CNc3ccc(N4CCCCC4)c(C(=O)N4CCCC4)c3)nn2)c1)c1cc(F)cc(F)c1 | –
